Data on 3 compounds can be found in US5593678A, “Protection of teleost fish” (University of Georgia Research Foundation, priority 1994, dated 1997).

SMILES strings stand for the structures. “Also recorded” adds a separate entry of the source. Read-outs that look alike come from different tables or passages of the source.

For series [1], the system named is NCC (lysis of IM-9 target cells). The series can be described thus: Costimulation assay: NCC cytotoxicity (51Cr release) with A23187 or mab 5C6. It is filed as cell-based, channel catfish (Ictalurus punctatus). Particulars: for Percentage specific release: E:T 40:1, 10^-4 M A23187, 60 μM H7 and HA1004, 0.5 μg/ml genistein, 1:3 dilution of tissue culture supernatant, media control 20.6; for activity at 0.5 µg/mL: Ictalurus punctatus, IM-9, 2 h; for influence of pretreatment on A23187 activation: pretreatment prior to A23187. As for the experimental part: Incubation was two hours and cells were either washed or not washed before addition to ^51 Cr-labeled IM-9 target cells (4- to 6-hour cytotoxicity assays).
To further investigate this inhibitory effect, a costimulus experiment was done using a calcium ionophore, e.g., A23187, combined with the various inhibitors and activators of NCC activity. Pretreatment of NCC with A23187 produced an almost identical increase in cytotoxicity regardless of the identity of the first treatment.
In a second costimulus experiment mab 5C6 was used (instead of A23187) to activate cytotoxicity (Table 6).

Another series relates to NCC. Particulars: cited from earlier work.
Series [2] deals with NCC membrane proteins (tyrosine phosphorylation). The series can be described thus: Tyrosine phosphorylation of NCC membrane proteins following mab 5C6 activation (Western blot). The note with it: NCC pretreated two hours with inhibitor; 100 μg/ml genistein or 30 μM HA1004. It is filed as cell-based, channel catfish (Ictalurus punctatus). The protocol: FIG. 1. Tyrosine phosphorylation of NCC membrane proteins following activation by mab 5C6. NCC were resuspended at 500×10^6 /ml and 200 μl aliquots were incubated at 37° C. with either 125 μl ammonium sulfate precipitate mab 5C6 (left panel) or an isotype control (right panel). At the indicated timed intervals, the reactions were terminated by addition of 325 μl of 2×lysis buffer. Lysates were immunoprecipitated with mab 4G10, electrophoresed on 11% SDS-PAGE, blotted onto nitrocellulose, and probed with mab 4G10. Molecular weight markers are indicated by the arrows.
FIG. 2. Tyrosine phosphorylation of Percoll-enriched NCC. Fish NCC were centrifuged for 15 minutes at 500 g on a 45.5% Percoll cushion. The cells at the interphase were harvested, washed, and treated with mab 5C6 for 0 and 20 sec before addition of 2×lysis buffer. Lysates were electrophoresed, blotted on nitrocellulose, and probed with mab 4G10.
FIG. 3. Effects of genistein on tyrosine phosphorylation in fish NCC. Fish NCC were incubated with media, genistein (100 μg/ml), or HA1004 (30 μM) for two hours prior to activation for zero time with mab 5C6 (left lane) and 40 sec with either mab 5C6 (middle lane) or an irrelevant IgM isotype control (right lane). Reactions were stopped by addition of lysis buffer and lysates were processed as explained in the legends to FIGS. 1 and 2. […]
On the technique in general: In western blotting, separated proteins are transferred to a membrane and probed.

Series [3] concerns protein tyrosine kinase (PTK). Particulars: NK cells; cited from earlier work.
Series [4] has as its system serine/threonine phosphorylation. The note with it: NK cells; cited from earlier work.
The subject of series [5] is NCC (lysis of IM-9 target cells). Kind of series: NCC cytotoxicity (51Cr release) after treatment with protein kinase inhibitors. The series is classed as cell-based, channel catfish (Ictalurus punctatus). Particulars: for inhibition at 30 µM / inhibition at 60 µM: E:T 80:1. The protocol:
To prepare NCC, fish were lightly anesthetized with ethyl m-aminobenzoate (Sigma Chemical Co.) in water and sacrificed.
IM-9 target cells were used in cytotoxicity assays. […] Cells were grown in stationary suspension cultures and were maintained at approximately 1×10^6 cells/ml. […]

The next series has as its system human NK cells. The note with it: same concentration of H-7; cited from earlier work.
The test system of series [6] is cyclic nucleotide dependent kinases. Particulars: cited from earlier work.

`CNc1ccc2oc(C[C@H]3O[C@@]4(CC[C@H]3C)O[C@H]([C@H](C)C(=O)c3ccc[nH]3)[C@H](C)C[C@H]4C)nc2c1C(=O)O` [A23187]: the Percentage specific release in series [1] stood at 81.0%. Also, the “activation of NCC cytotoxicity” value in series [1] (Table 5) was “strong activation of NCC cytotoxicity”. Further, the “ability to overcome kinase inhibitor inhibition of NCC cytotoxicity” value in series [1] (after H-7 or genistein) is listed as “able to overcome the inhibition produced by treatment of NCC with H-7 or genistein”. Moreover, the “cytotoxicity of NCC (words, prior work)” value in the series on NCC was “activated NCC cytotoxicity and increased "receptor" expression”.

Regarding `O=c1c(-c2ccc(O)cc2)coc2cc(O)cc(O)c12` [Genistein, genistein], the Percentage specific release in series [1] is reported as 11.0%. For the same compound, the activity at 0.5 µg/mL in series [1] (4 × 10^6 NCC/ml, mabs 1:50 dilution, H-7, HA1004 60 μM, genistein 0.5 μg/ml, read-out: Percentage of control (E:T ratio) 40%) is 38.9%; in series [1] (mabs 1:50 dilution, H-7, HA1004 60 μM, genistein 0.5 μg/ml, read-out: Percentage of control (E:T ratio) 20%), 35.5%. In series [1], the “influence of pretreatment on A23187 activation” value is “did not produce any reductions in A23187 activation; also recorded: did not appear to be additive and did not influence the final level of activation”. Further, in series [2], the “specific protein phosphorylation after mab 5C6” value is “Specific protein phosphorylation was not observed”. Further, in series [3], the “PTK activity” value is recorded as “inhibit PTK activity”. For the same compound, in series [4], the “serine/threonine phosphorylation” value is listed as “no effect on serine/threonine phosphorylation”. Moreover, the “inhibition of NCC cytotoxicity” value in series [5] is “almost completely inhibited NCC activity in a dose-dependent fashion”. Further, the inhibition at 142 µg/mL in series [5] (Ictalurus punctatus, IM-9, 142 μg/ml, read-out: inhibition of cytotoxicity) was around 100%; in series [5] (Ictalurus punctatus, 142.0 μg/ml, E:T 20:1, 6 hours, read-out: Percentage inhibition (NCC lysis of IM-9)), 94%. Besides, in series [5] (Ictalurus punctatus, 14.2 μg/ml, E:T 20:1, 6 hours, read-out: Percentage inhibition (NCC lysis of IM-9)), the inhibition at 14.2 µg/mL stood at 55.5%. The inhibition at 28.4 µg/mL in series [5] (Ictalurus punctatus, 28.4 μg/ml, E:T 20:1, 6 hours, read-out: Percentage inhibition (NCC lysis of IM-9)) worked out at 75.9%. In series [5] (Ictalurus punctatus, 57.0 μg/ml, E:T 20:1, 6 hours, read-out: Percentage inhibition (NCC lysis of IM-9)), the inhibition at 57 µg/mL came out at 64.9%. Besides, the inhibition of cytotoxicity result in series [5] (between approximately 14 and approximately 57 μg/ml) is “greater than 50%”.

Turning to `CC1CNCCN1S(=O)(=O)c1cccc2cnccc12.Cl.Cl` (stereo not shown) [H-7, 1-(5-isoquinolinesulfonyl)-2-methylpiperazine di-HCl], the “Percentage of control (E:T ratio) 40%” value in series [1] (4 × 10^6 NCC/ml, mabs 1:50 dilution, H-7, HA1004 60 μM, genistein 0.5 μg/ml, 120 min) came to 37.5%. Moreover, the Percentage specific release in series [1] was determined as 9.1%. In addition, the “Percentage of control (E:T ratio) 20%” value in series [1] (mabs 1:50 dilution, H-7, HA1004 60 μM, genistein 0.5 μg/ml, 120 min) is 53.9%. For the same compound, in series [1] (di-HCl), the “influence of pretreatment on A23187 activation” value was “did not produce any reductions in A23187 activation; also recorded: did not appear to be additive and did not influence the final level of activation”. In addition, in the series with human NK cells, the “inhibition of human NK cells” value is on record as 60-90%. For the same compound, in series [6], the “inhibition of cyclic nucleotide dependent kinases” value is listed as “to a lesser extent it inhibits cyclic nucleotide kinases”. Also, the inhibition at 30 µM in series [5] (Ictalurus punctatus, 1 h, read-out: Percentage inhibition (NCC lysis of IM-9), 30 μM, 60 min) amounted to 12.5%; in series [5] (Ictalurus punctatus, 2 h, read-out: Percentage inhibition (NCC lysis of IM-9), 30 μM, 120 min), 31%; in series [5] (Ictalurus punctatus, 3 h, read-out: Percentage inhibition (NCC lysis of IM-9), 30 μM, 180 min/wash), 34.2%; in series [5] (Ictalurus punctatus, 3 h, read-out: Percentage inhibition (NCC lysis of IM-9), 30 μM, 180 min), 37.8%. The inhibition at 60 µM stood at 10.2% in series [5] (Ictalurus punctatus, 1 h, read-out: Percentage inhibition (NCC lysis of IM-9), 60 μM, 60 min); 12.6% in series [5] (Ictalurus punctatus, 2 h, read-out: Percentage inhibition (NCC lysis of IM-9), 60 μM, 120 min); 34.5% in series [5] (Ictalurus punctatus, 3 h, read-out: Percentage inhibition (NCC lysis of IM-9), 60 μM, 180 min/wash); 35.7% in series [5] (Ictalurus punctatus, 3 h, read-out: Percentage inhibition (NCC lysis of IM-9), 60 μM, 180 min). The “level of inhibition of NCC activity” value in series [5] (summary of Table 1) is on record as “approximately 35%”. Moreover, the “effect of removal (washing) of inhibitor on cytotoxicity” value in series [5] (washed prior to addition of target cells) is reported as “did not substantially affect the cytotoxicity”.
